Experimental data reported in the NIST ThermoML archive (doi:10.1016/j.jct.2012.08.033).
± gives the expanded uncertainty stated by the source.

Test: xn = mol fraction of the nth substance listed
Conditions: Liquid, vibrating tube

C1CCOC1 [tetrahydrofuran] + O
mass density (303.11 K, 78.5 kPa, x2 = 0.9723): 990.22 ± 2 kg/m3 | mass density (303.11 K, 78.5 kPa, x2 = 0.9826): 991.87 ± 2 kg/m3 | mass density (303.11 K, 100.7 kPa, x2 = 0.0404): 878.45 ± 2 kg/m3 | mass density (303.11 K, 100.7 kPa, x2 = 0.0593): 879.58 ± 2 kg/m3 | mass density (303.11 K, 100.7 kPa, x2 = 0.9573): 987.78 ± 2 kg/m3 | mass density (303.11 K, 100.7 kPa, x2 = 0.9723): 990.21 ± 2 kg/m3 | mass density (303.11 K, 100.7 kPa, x2 = 0.9826): 991.85 ± 2 kg/m3 | mass density (303.12 K, 78.5 kPa, x2 = 0.0208): 877.38 ± 2 kg/m3 | mass density (303.12 K, 78.5 kPa, x2 = 0.6092): 924.49 ± 2 kg/m3 | mass density (303.12 K, 78.5 kPa, x2 = 0.9709): 990.08 ± 2 kg/m3 | mass density (303.12 K, 100.7 kPa, x2 = 0.0208): 877.61 ± 2 kg/m3 | mass density (303.12 K, 100.7 kPa, x2 = 0.6092): 924.62 ± 2 kg/m3 | mass density (303.12 K, 100.7 kPa, x2 = 0.9709): 990.06 ± 2 kg/m3 | mass density (303.13 K, 78.5 kPa, x2 = 0.0429): 878.4 ± 2 kg/m3 | mass density (303.13 K, 78.5 kPa, x2 = 0.8857): 974.05 ± 2 kg/m3 | mass density (303.13 K, 100.7 kPa, x2 = 0.0429): 878.63 ± 2 kg/m3 | mass density (303.13 K, 100.7 kPa, x2 = 0.8857): 974.07 ± 2 kg/m3 | mass density (308.19 K, 78.5 kPa, x2 = 0.3407): 891.62 ± 2 kg/m3 | mass density (308.19 K, 100.7 kPa, x2 = 0.3407): 891.86 ± 2 kg/m3 | mass density (308.22 K, 78.5 kPa, x2 = 0.0872): 875.87 ± 2 kg/m3 | mass density (308.22 K, 78.5 kPa, x2 = 0.9418): 982.23 ± 2 kg/m3 | mass density (308.22 K, 78.5 kPa, x2 = 0.9519): 984.2 ± 2 kg/m3 | mass density (308.22 K, 78.5 kPa, x2 = 0.9921): 991.99 ± 2 kg/m3 | mass density (308.22 K, 100.7 kPa, x2 = 0.0872): 876.14 ± 2 kg/m3 | mass density (308.22 K, 100.7 kPa, x2 = 0.9418): 982.27 ± 2 kg/m3 | mass density (308.22 K, 100.7 kPa, x2 = 0.9519): 984.24 ± 2 kg/m3 | mass density (308.22 K, 100.7 kPa, x2 = 0.9921): 992.01 ± 2 kg/m3 | mass density (308.23 K, 78.5 kPa, x2 = 0.0269): 871.92 ± 2 kg/m3 | mass density (308.23 K, 78.5 kPa, x2 = 0.0404): 872.54 ± 2 kg/m3 | mass density (308.23 K, 78.5 kPa, x2 = 0.0593): 873.61 ± 2 kg/m3 | mass density (308.23 K, 78.5 kPa, x2 = 0.988): 991.08 ± 2 kg/m3 | mass density (308.23 K, 100.7 kPa, x2 = 0.0269): 872.19 ± 2 kg/m3 | mass density (308.23 K, 100.7 kPa, x2 = 0.0404): 872.75 ± 2 kg/m3 | mass density (308.23 K, 100.7 kPa, x2 = 0.0593): 873.88 ± 2 kg/m3 | mass density (308.23 K, 100.7 kPa, x2 = 0.988): 991.1 ± 2 kg/m3 | mass density (308.24 K, 78.5 kPa, x2 = 0.0208): 871.65 ± 2 kg/m3 | mass density (308.24 K, 78.5 kPa, x2 = 0.9723): 988.08 ± 2 kg/m3 | mass density (308.24 K, 78.5 kPa, x2 = 0.9826): 989.93 ± 2 kg/m3 | mass density (308.24 K, 100.7 kPa, x2 = 0.0208): 871.93 ± 2 kg/m3 | mass density (308.24 K, 100.7 kPa, x2 = 0.9723): 988.11 ± 2 kg/m3 | mass density (308.24 K, 100.7 kPa, x2 = 0.9826): 989.95 ± 2 kg/m3 | mass density (308.25 K, 78.5 kPa, x2 = 0.6092): 919.21 ± 2 kg/m3 | mass density (308.25 K, 78.5 kPa, x2 = 0.8857): 970.11 ± 2 kg/m3 | mass density (308.25 K, 78.5 kPa, x2 = 0.9573): 985.24 ± 2 kg/m3 | mass density (308.25 K, 78.5 kPa, x2 = 0.9709): 987.99 ± 2 kg/m3 | mass density (308.25 K, 100.7 kPa, x2 = 0.6092): 919.38 ± 2 kg/m3 | mass density (308.25 K, 100.7 kPa, x2 = 0.8857): 970.18 ± 2 kg/m3 | mass density (308.25 K, 100.7 kPa, x2 = 0.9573): 985.28 ± 2 kg/m3 | mass density (308.25 K, 100.7 kPa, x2 = 0.9709): 987.82 ± 2 kg/m3 | mass density (308.26 K, 78.5 kPa, x2 = 0.0429): 872.71 ± 2 kg/m3 | mass density (308.26 K, 100.7 kPa, x2 = 0.0429): 872.89 ± 2 kg/m3 | mass density (313.26 K, 78.5 kPa, x2 = 0.3407): 886.03 ± 2 kg/m3 | mass density (313.26 K, 100.7 kPa, x2 = 0.3407): 886.33 ± 2 kg/m3 | mass density (313.28 K, 78.5 kPa, x2 = 0.0269): 866.21 ± 2 kg/m3 | mass density (313.28 K, 78.5 kPa, x2 = 0.0872): 869.29 ± 2 kg/m3 | mass density (313.28 K, 78.5 kPa, x2 = 0.9418): 979.18 ± 2 kg/m3 | mass density (313.28 K, 100.7 kPa, x2 = 0.0269): 866.56 ± 2 kg/m3 | mass density (313.28 K, 100.7 kPa, x2 = 0.0872): 869.63 ± 2 kg/m3 | mass density (313.28 K, 100.7 kPa, x2 = 0.9418): 979.28 ± 2 kg/m3 | mass density (313.29 K, 78.5 kPa, x2 = 0.0593): 867.9 ± 2 kg/m3 | mass density (313.29 K, 78.5 kPa, x2 = 0.9519): 981.33 ± 2 kg/m3 | mass density (313.29 K, 78.5 kPa, x2 = 0.9921): 990.02 ± 2 kg/m3 | mass density (313.29 K, 100.7 kPa, x2 = 0.0593): 868.25 ± 2 kg/m3 | mass density (313.29 K, 100.7 kPa, x2 = 0.9519): 981.43 ± 2 kg/m3 | mass density (313.29 K, 100.7 kPa, x2 = 0.9921): 990.1 ± 2 kg/m3 | mass density (313.3 K, 78.5 kPa, x2 = 0.0404): 866.86 ± 2 kg/m3 | mass density (313.3 K, 78.5 kPa, x2 = 0.988): 989.08 ± 2 kg/m3 | mass density (313.3 K, 100.7 kPa, x2 = 0.0404): 867.21 ± 2 kg/m3 | mass density (313.3 K, 100.7 kPa, x2 = 0.988): 989.16 ± 2 kg/m3 | mass density (313.31 K, 78.5 kPa, x2 = 0.9826): 987.78 ± 2 kg/m3 | mass density (313.31 K, 100.7 kPa, x2 = 0.9826): 987.87 ± 2 kg/m3 | mass density (313.32 K, 78.5 kPa, x2 = 0.6092): 913.96 ± 2 kg/m3 | mass density (313.32 K, 78.5 kPa, x2 = 0.9723): 985.71 ± 2 kg/m3 | mass density (313.32 K, 100.7 kPa, x2 = 0.6092): 914.2 ± 2 kg/m3 | mass density (313.32 K, 100.7 kPa, x2 = 0.9723): 985.8 ± 2 kg/m3 | mass density (313.33 K, 78.5 kPa, x2 = 0.9709): 985.46 ± 2 kg/m3 | mass density (313.33 K, 100.7 kPa, x2 = 0.9709): 985.55 ± 2 kg/m3 | mass density (313.34 K, 78.5 kPa, x2 = 0.0208): 866.07 ± 2 kg/m3 | mass density (313.34 K, 78.5 kPa, x2 = 0.8857): 966.2 ± 2 kg/m3 | mass density (313.34 K, 78.5 kPa, x2 = 0.9573): 982.55 ± 2 kg/m3 | mass density (313.34 K, 100.7 kPa, x2 = 0.0208): 866.42 ± 2 kg/m3 | mass density (313.34 K, 100.7 kPa, x2 = 0.8857): 966.33 ± 2 kg/m3 | mass density (313.34 K, 100.7 kPa, x2 = 0.9573): 982.65 ± 2 kg/m3 | mass density (313.35 K, 78.5 kPa, x2 = 0.0429): 867.1 ± 2 kg/m3 | mass density (313.35 K, 100.7 kPa, x2 = 0.0429): 867.44 ± 2 kg/m3
